Values after ≈ are worked out from the molar mass of the structure shown. Where two headings read alike, the source gives them in different places. Ends that are not written are not given here. Peptide text beside a SMILES is read from it.
What was measured:
[1] = tested on: Bacillus pumilus CMCC63202; assay type: cell-based
Description: (§1) The minimum inhibitory concentrations (MIC) of the invention peptides were determined using methods described below:
(§2) The strain was recovered, inoculated into sloped medium, and grown overnight at 37° C. Typical clone selected were grown overnight at 37° C. in LB culture, diluted in the same medium to give concentrations of about 10^4-10^5 CFU/ml. The broth dilutions were set up in a 96-well microtiter plate by putting 100 μl of LB-S in every well. Added diluted peptide to every well (10 ul per well), cultured overnight at 37° C. The next day, the plates were scored for growth in the wells, and the MIC determined (In Yup Park et al.; FEBS Letters; 437 (1998) 258-262).

[2] = tested on: Candida albicans ATCC10231; assay type: cell-based
Description: as §1, §2

[3] = tested on: Escherichia coli ATCC8099; assay type: cell-based
Description: as §1, §2

[4] = tested on: Klebsiella pneumoniae CMCC46117; assay type: cell-based
Description: as §1, §2

[5] = tested on: Micrococcus lutea CMCC28001; assay type: cell-based
Description: as §1, §2

[6] = tested on: Micrococcus lysoleikticus S1.634; assay type: cell-based
Description: as §1, §2

[7] = tested on: Pseudomonas aeruginosa CMCC10104; assay type: cell-based
Description: as §1, §2

[8] = tested on: Saccharomyces cerevisiae ATCC9736; assay type: cell-based
Description: as §1, §2

[9] = tested on: Staphylococcus aureaus CMCC26003; assay type: cell-based
Description: as §1, §2

S. aureus CMCC26003 = assay type: in vivo, Kunming mouse; conditions: for Inhibitory rate: S. aureus infected mice
Description: The infection model was Staphylococcus aureus infection in the Kunming mouse.
S. aureus CMCC26003 was cultured overnight, with moderate agitation, in Veal Infusion broth (Difco) and diluted in broth containing 5% hog gastric mucin (Difco). Male Kunming mice weighing approximately 20 grams were infected intraperitoneally with 10^6-10^7 viable cells. There were 3 mice in each treatment group. Antimicrobial peptide GK-1 was administered intravenously (in 0.1 ml 5% dextrose for injection), within 10 minutes of infection. Vancomycin was administered subcutaneously.

Bacillus subtilis DB430 = experiment: MIC assay, 96-well microtiter plate; assay type: cell-based; conditions: Bacillus subtilis DB430 (G+)
Description: as §1, §2

CMCC50094 = experiment: MIC assay, 96-well microtiter plate; assay type: cell-based; conditions: B Subacute sclerosing panencephalitis CMCC50094 (G−)
Description: as §1, §2

[10] = tested on: K562 (human chronic myeloid leukemia cell)
Description: (§3) To determine the inhibitory activity of the peptides against tumor cells, a MTT colorimetric assay was performed. Fifty percent inhibitory concentrations of the antimicrobial peptides against tumor cells and normal fibroblasts were determined. Tumor cell K562 (human chronic myeloid leukemia cell), Bcap-37 (human breast cancer cell), QGY-7703 (human hepatocellular carcinoma cell), LOVO colon cancer cell, and mouse NIH-3T3 fibroblast were selected. These cells were provided by the College of Life Sciences, Fudan University. Cells were grown in RPMI1-1640, containing 10% inactivated calf serum. Cells were transferred into the 96-well plate at 2*10^4 cells/well, and 150 μl was added in each well. After the 96-well plate were incubated overnight at 37, in 5% carbon dioxide, 20 μl diluted peptide solution was added to each well, then incubated for 3 days, 20 μl MTT solution was added to each well, and incubated at 37° C. for 4 hours, 40 μl, 002M HCl solution containing 20% SDS was added to each well to solve the purple crystal, and incubated overnight at 37° C. The absorbance at 570 nm was determined.

[11] = tested on: Bcap-37 (human breast cancer cell)
Description: as §3

[12] = tested on: QGY-7703 (human hepatocellular carcinoma cell)
Description: as §3

Description for LOVO colon cancer cell: as §3
Description for mouse NIH-3T3 fibroblast: as §3

Compound | MIC [1] [µg/mL] | MIC [2] [µg/mL] | MIC [3] [µg/mL] | MIC [4] [µg/mL] | MIC [5] [µg/mL] | MIC [6] [µg/mL] | MIC [7] [µg/mL] | MIC [8] [µg/mL] | MIC [9] [µg/mL] | MIC (Bacillus subtilis DB430) [µg/mL] | MIC (CMCC50094) [µg/mL] | inhibitory activity against tumor cells (IC50) [10] [µg/mL] | inhibitory activity against tumor cells (IC50) [11] [µg/mL] | inhibitory activity against tumor cells (IC50) [12] [µg/mL] | inhibitory activity against tumor cells (IC50) (LOVO colon cancer cell) [µg/mL] | IC50 against normal fibroblasts (mouse NIH-3T3 fibroblast) [µg/mL] | further results
CC[C@H](C)[C@@H]1NC(=O)CNC(=O)[C@H]([C@@H](C)CC)NC(=O)[C@H](CCCCN)NC(=O)[C@H](CCCCN)NC(=O)[C@H](Cc2ccccc2)NC(=O)[C@H](CC(C)C)NC(=O)[C@H](CCCCN)NC(=O)[C@H](Cc2c[nH]c3ccccc23)NC(=O)[C@H](CCCCN)NC(=O)[C@H](CCCCN)NC(=O)[C@H](CC(C)C)NC(=O)[C@H](CC(C)C)NC(=O)[C@H](CCCCN)NC(=O)[C@H](CCCNC(=N)N)NC(=O)[C@H](CC(C)C)NC(=O)CNC(=O)[C@H](CCCNC(=N)N)NC(=O)[C@H](CCCCN)NC(=O)[C@H](CC(C)C)NC(=O)[C@H](CC(C)C)NC(=O)[C@H](CCCNC(=N)N)NC(=O)CNC1=O [GK-20] (cyclo(KWKLFKKIGIGRLLKRGLRKLLK); ring closure inferred) | 6 (≈ 2.16 µM) | 18 (≈ 6.49 µM) | 8 (≈ 2.88 µM) | 10 (≈ 3.6 µM) | 4 (≈ 1.44 µM) | 2 (≈ 0.721 µM) | 10 (≈ 3.6 µM) | 20 (≈ 7.21 µM) | 0.8 (≈ 0.288 µM) | – | – | – | – | – | – | – | –
CN[C@H](CC(C)C)C(=O)N[C@H]1C(=O)N[C@@H](CC(N)=O)C(=O)N[C@H]2C(=O)N[C@H]3C(=O)N[C@H](C(=O)N[C@H](C(=O)O)c4cc(O)cc(O)c4-c4cc3ccc4O)[C@H](O)c3ccc(c(Cl)c3)Oc3cc2cc(c3O[C@@H]2O[C@H](CO)[C@@H](O)[C@H](O)[C@H]2O[C@H]2C[C@](C)(N)[C@H](O)[C@H](C)O2)Oc2ccc(cc2Cl)[C@H]1O [Vancomycin] | – | – | – | – | – | – | – | – | – | – | – | – | – | – | – | – | Inhibitory rate (S. aureus CMCC26003; 0.5 mg/kg s.c.): 0%; Inhibitory rate (S. aureus CMCC26003; 1.0 mg/kg s.c.): 40%; Inhibitory rate (S. aureus CMCC26003; 2.0 mg/kg s.c.): 80%; Inhibitory rate (S. aureus CMCC26003; 4.0 mg/kg s.c.): 100%; Inhibitory rate (S. aureus CMCC26003; 8.0 mg/kg s.c.): 100%; Effectiveness against S. aureus infection (protection of infected mice) (S. aureus CMCC26003; dosage of 4.5 mg/kg): 100%
KWKLFKKIGIGRLLKRGLRKLLK [GK-1] | 0.5 | 8 | 1 | 2 | 2 | 1.0 | 10 | 14 | 0.4 | 4 | 4 | 45 | 52 | 38 | 35 | >100 | –
KWKLFKKIGIGRLLRRLLRRLLR [GK-2] | 1 | 10 | 0.5 | 0.8 | 4 | 0.8 | 12 | 12 | 0.2 | 4 | 1 | 56 | 47 | 44 | 32 | >100 | –
RFKLFKKIPRLLRRGLRKVLK [GK-19] | 10 | 16 | 2 | 2 | 10 | 4 | 4 | 12 | 1.0 | 2 | 1 | – | – | – | – | – | –
RWKLFKKIEKVGRNVRDGLIKAGPAIAVIGQAKSL [cecropin A1, reference compound] | 50 | 50 | 20 | 16 | 30 | 50 | 18 | 50 | 16 | 12 | 12 | – | – | – | – | – | –
RWRLFKRIGIGRLLKRGLR [GK-3] | 0.8 | 11 | 1.6 | 2 | 3 | 1.2 | 1.8 | 12 | 0.5 | 5 | 6 | 13 | 25 | 21 | 31 | >100 | –

Source: US7629438B2, “Group of synthetic antimicrobial peptides” (priority 2002, dated 2009)
